In ChEMBL document CHEMBL5143533, “Development of isoquinolinone derivatives as immunoproteasome inhibitors” (Bioorg Med Chem Lett, 2022):
Where a SMILES comes first, the peptide text is derived from it. The star is where a group is joined. Cbz = O=C(OCc1ccccc1)*

Experiments:
[1] = target: T1, Proteasome Macropain subunit MB1 (Homo sapiens, UniProt P28074); experiment: Inhibition of 20S constitutive proteosome beta5c subunit (unknown origin) assessed as substrate hydrolysis using Suc-Leu-Leu-Val-Tyr-AMC as fluorogenic substrate at 100 uM
T1 sequence (P28074 whole entry): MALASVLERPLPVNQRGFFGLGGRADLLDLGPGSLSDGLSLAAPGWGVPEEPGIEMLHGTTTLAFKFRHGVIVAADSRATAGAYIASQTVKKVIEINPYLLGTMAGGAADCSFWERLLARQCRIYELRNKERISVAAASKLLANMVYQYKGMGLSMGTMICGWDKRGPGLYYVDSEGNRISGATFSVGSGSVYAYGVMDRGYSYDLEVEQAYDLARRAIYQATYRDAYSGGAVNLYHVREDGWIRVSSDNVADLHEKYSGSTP

[2] = Inhibition of 20S immuno proteosome beta5i subunit (unknown origin) assessed as substrate hydrolysis using Suc-Leu-Leu-Val-Tyr-AMC as fluorogenic substrate at 100 uM; design: species or system Homo sapiens
[3] = organism: Homo sapiens; experiment: Reversible inhibition of 20S immuno proteosome beta 5i subunit (unknown origin) assessed as substrate hydrolysis using Suc-Leu-Leu-Val-Tyr-AMC as substrate at 0.25 to 25 uM by fluorescence based assay; details: dose 0.25-25 µM, time <= 600.0 sec, TDE = time-dependent effect
[4] = Cytotoxicity against human MM1.R cells assessed as reduction in cell vitality incubated for 24 hrs by MTT assay; type: functional, cell-based; details: MM.1R
[5] = Inhibition of 20S immuno proteosome beta5i subunit (unknown origin) assessed as substrate hydrolysis using Z-Leu-Leu-Leu-al as substrate; design: species or system Homo sapiens

SMILES	Ki [1]	Ki [2]	inhibition [3]	EC50 [4]	Ki [5]
COc1cc2ccn(C/C=C/C(=O)NCCc3ccccc3)c(=O)c2cc1OC	60 µM	45 µM	–	–	–
COc1cc2ccn(C/C=C/C(=O)Nc3ccccc3)c(=O)c2cc1OC	49 µM	50 µM	–	–	–
COc1cc2ccn(C/C=C/C(=O)NC3CCCCC3)c(=O)c2cc1OC	23 µM	55 µM	–	–	–
COc1cc2ccn(C/C=C/C(=O)NCCC(C)C)c(=O)c2cc1OC	1.18 µM	1.91 µM	Tde	–	–
CCCCNC(=O)/C=C/Cn1ccc2cc(OC)c(OC)cc2c1=O	19 µM	49 µM	–	–	–
COc1cc2ccn(C/C=C/C(=O)NCCCc3ccccc3)c(=O)c2cc1OC	10.6 µM	64 µM	–	–	–
CC(C)CCNC(=O)Cn1ccc2ccc(Br)cc2c1=O	–	–	–	17.8 µM	–
CC(C)C[C@@H](C=O)NC(=O)[C@H](CC(C)C)NC(=O)[C@H](CC(C)C)NC(=O)OCc1ccccc1 [MG-132] (Cbz-Leu-Leu-Leu-aldehyde)	–	–	–	–	0.07 µM
COc1cc2ccn(C/C=C/C(=O)NCc3ccccc3)c(=O)c2cc1OC	–	65 µM	–	–	–
